We go through two compounds from US20080058213A1, “Benzoxazole Compounds” (priority 2004, published 2008).

What all share (assay type): in vivo
One series concerns rice plant. Nature of the series: Weed control test for paddy field (Test Example 1): phytotoxicity to rice plant. Conditions: paddy pots, treated at 1.0 leaf stage of barnyard grass, examined after 3 weeks. An excerpt:
(§1) Paddy field soil was filled in 1/10,000 are pots, kneaded with adequate amounts of water and chemical fertilizer, seeded with barnyard grass (Echinochloa crusgalli), Monochoria (Monochoria vaginalis), Japanese bulrush (Scirpus juncoides) and flat sedge (Cyperus serotinus), and further transplanted with 2.0 leaf stage of rice plant. The pots were maintained under the water-filled condition to a depth of 3 cm.
(§2) Wettable powders containing the compounds (1) as identified in Table 1, which were formulated following Production Example 2, were diluted with adequate amount of water and applied to the pots dropwise with pippet at a prescribed dose of the active ingredients per are, at 1.0 leaf stage of the barnyard grass.
(§3) After placing the pots in a glasshouse which was controlled at an average temperature of 25° C. for 3 weeks, herbicidal effect was examined.
(§4) Evaluation of phytotoxicity is shown in the following six grades, as compared with the condition of untreated control: • 0: normal growth • 1: little damaged • 2: low damaged • 3: medium damaged • 4: serious damaged • 5: complete killed.

The test system of series [1] is Monochoria (Monochoria vaginalis). The series can be described thus: Weed control test for paddy field (Test Example 1): Monochoria. Conditions: paddy pots, treated at 1.0 leaf stage of barnyard grass, examined after 3 weeks.
Excerpt: as §1, §2, §3
(§5) Evaluation of the herbicidal effect is shown in the following six grades, by comparing the condition of untreated control and growth inhibition (%): • 0: 0%-less than 20% • 1: 20%-less than 40% • 2: 40%-less than 60% • 3: 60%-less than 80% • 4: 80%-less than 100% • 5: 100%.

In series [2] the test system is flat sedge (Cyperus serotinus). The series can be described thus: Weed control test for paddy field (Test Example 1): flat sedge. To be noted: paddy pots, treated at 1.0 leaf stage of barnyard grass, examined after 3 weeks.
Excerpt: as §1, §2, §3, §5

For series [3], the system named is Japanese bulrush (Scirpus juncoides). The series can be described thus: Weed control test for paddy field (Test Example 1): Japanese bulrush. To be noted: paddy pots, treated at 1.0 leaf stage of barnyard grass, examined after 3 weeks.
Excerpt: as §1, §2, §3, §5

Series [4] deals with barnyard grass (Echinochloa crusgalli). Nature of the series: Weed control test for paddy field (Test Example 1): barnyard grass. To be noted: paddy pots, treated at 1.0 leaf stage of barnyard grass, examined after 3 weeks.
Excerpt: as §1, §2, §3, §5

The subject of another series is wheat. Nature of the series: Foliage treatment test for upland field (Test Example 3): phytotoxicity to wheat. Conditions: foliage treatment at 1.0-2.0 leaf stage of southern crabgrass, examined after 3 weeks. On the procedure: as §4
(§6) Compost mixed soil was filled in 1/3,000 are pots, seeded with southern crabgrass, common lambsquaters, slender amaranth, common purslane, velvetleaf, wheat, corn and soybean. The seeds were covered up with the soil and cultured in a glasshouse kept at 25° C. on the average.
(§7) After placing the test pots in a grasshouse kept at 25° C. on the average for 3 weeks, the herbicidal effect was examined.

In the next series the test system is velvetleaf. Nature of the series: Foliage treatment test for upland field (Test Example 3): velvetleaf. To be noted: foliage treatment at 1.0-2.0 leaf stage of southern crabgrass, examined after 3 weeks.
Excerpt: as §5, §6
(§8) Wettable powders containing the object compounds (1) as identified in Table 1, which were formulated following Preparation Example 2, were diluted with water to the prescribed dose of the active ingredient, and uniformly sprayed onto the weeds at 1.0-2.0 leaf stage of the southern crabgrass at an application water of 15 liters per are.
as §7
(§9) Evaluation of the herbicidal effect was conducted in the similar manner to Test Example 1.

In another series the test system is soybean. Nature of the series: Foliage treatment test for upland field (Test Example 3): phytotoxicity to soybean. Conditions: foliage treatment at 1.0-2.0 leaf stage of southern crabgrass, examined after 3 weeks. The procedure:
as §4, §6, §7

Another series has as its system southern crabgrass. The series can be described thus: Foliage treatment test for upland field (Test Example 3): southern crabgrass. Conditions: foliage treatment at 1.0-2.0 leaf stage of southern crabgrass, examined after 3 weeks.
Excerpt: as §5, §6, §8, §7, §9

The next series has as its system slender amaranth. Nature of the series: Foliage treatment test for upland field (Test Example 3): slender amaranth. Conditions: foliage treatment at 1.0-2.0 leaf stage of southern crabgrass, examined after 3 weeks.
Excerpt: as §5, §6, §8, §7, §9

A further series concerns common lambsquaters. Nature of the series: Foliage treatment test for upland field (Test Example 3): common lambsquaters. To be noted: foliage treatment at 1.0-2.0 leaf stage of southern crabgrass, examined after 3 weeks.
Excerpt: as §5, §6, §8, §7, §9

The next series deals with corn. Nature of the series: Foliage treatment test for upland field (Test Example 3): phytotoxicity to corn. Conditions: foliage treatment at 1.0-2.0 leaf stage of southern crabgrass, examined after 3 weeks. On the procedure:
as §4, §6, §7

A further series relates to common purslane. The series can be described thus: Foliage treatment test for upland field (Test Example 3): common purslane. Conditions: foliage treatment at 1.0-2.0 leaf stage of southern crabgrass, examined after 3 weeks.
Excerpt: as §5, §6, §8, §7, §9

`CCOCC(=Cc1cccc(C(F)(F)F)c1)c1nc2cc(F)cc(F)c2o1` [Compound 112]: the figures for the “Phytotoxicity Rice plant” value in the series with rice plant (dose 2.5 g ai/a) and in the series on rice plant (dose 5 g ai/a) were 0 and 1, respectively. The “Herbicidal Effect Monochoria vaginalis” value in [1] (dose 2.5 g ai/a) and in series [1] (dose 5 g ai/a) was 5 (100%) throughout. Also, the “Herbicidal Effect Flat sedge” value in [2] (dose 2.5 g ai/a) was 3 (60%-less than 80%); in [2] (dose 5 g ai/a), 4 (80%-less than 100%). Moreover, the figures for the “Herbicidal Effect Japanese bulrush” value in series [3] (dose 2.5 g ai/a) and in series [3] (dose 5 g ai/a) were 4 (80%-less than 100%) and 5 (100%), respectively. Besides, the results for the “Herbicidal Effect Barnyard grass” value in [4] (dose 2.5 g ai/a) and in [4] (dose 5 g ai/a) were 4 (80%-less than 100%) and 5 (100%), respectively.

Consider `COCC(=Cc1cccc(C(F)(F)F)c1)c1nc2cc(C(C)(C)C)ccc2o1` [Compound 151], for which the Phytotoxicity wheat in the series on wheat (dose 2.5 g ai/a) and in the series on wheat (dose 5 g ai/a) was 0 throughout. The “Phytotoxicity Rice plant” value with rice plant (dose 2.5 g ai/a) and with rice plant (dose 5 g ai/a) was 0 throughout. The “Herbicidal Effect Monochoria vaginalis” value in series [1] (dose 2.5 g ai/a) and in [1] (dose 5 g ai/a) was 5 (100%) each time. The “Herbicidal Effect Flat sedge” value in [2] (dose 2.5 g ai/a) is 3 (60%-less than 80%); in series [2] (dose 5 g ai/a), 4 (80%-less than 100%). Also, the “Herbicidal Effect Japanese bulrush” value in [3] (dose 2.5 g ai/a) is reported as 3 (60%-less than 80%); in series [3] (dose 5 g ai/a) it was 5 (100%). The “Herbicidal Effect velvetleaf” value in the series with velvetleaf (dose 2.5 g ai/a) is recorded as 3 (60%-less than 80%); in the series with velvetleaf (dose 5 g ai/a), 4 (80%-less than 100%). Also, the Phytotoxicity soybean with soybean (dose 2.5 g ai/a) and in the series on soybean (dose 5 g ai/a) was 0 each time. For the same compound, the entries for the “Herbicidal Effect southern crabgrass” value in the series on southern crabgrass (dose 2.5 g ai/a) and with southern crabgrass (dose 5 g ai/a) were 4 (80%-less than 100%) and 5 (100%), respectively. The “Herbicidal Effect Barnyard grass” value in [4] (dose 2.5 g ai/a) is reported as 4 (80%-less than 100%); in [4] (dose 5 g ai/a), 5 (100%). Further, the “Herbicidal Effect slender amaranth” value in the series on slender amaranth (dose 2.5 g ai/a) and with slender amaranth (dose 5 g ai/a) was 5 (100%) in each case. The “Herbicidal Effect Common lambsquatters” value in the series on common lambsquaters (dose 2.5 g ai/a) and in the series with common lambsquaters (dose 5 g ai/a) was 5 (100%) each time. The Phytotoxicity corn in the series with corn (dose 2.5 g ai/a) and in the series on corn (dose 5 g ai/a) was 0 throughout. Moreover, the “Herbicidal Effect common purslane” value with common purslane (dose 2.5 g ai/a) and in the series with common purslane (dose 5 g ai/a) was 5 (100%) throughout.
